Source: patent publication US12516058B2, “Small-molecule compounds for controlling endosomal toll-like receptors and therapeutic agent for autoimmune diseases using same” (priority 2020, dated 2026)
Entries after “also recorded” stand apart in the source; their conditions may differ.

Tests used:
TLR7 = target: T1, TLR7 (Mus musculus, UniProt P58681); experiment: TNF-α secretion ELISA after TLR7 agonist imiquimod (IMQ) in RAW 264.7 cells; assay type: cell-based; settings: SK21 to SK82 at 0.5 μM or 2 μM, Imiquimod 1 μg/ml
T1 construct: endogenous in cells; host or cells: RAW 264.7
T1 sequence (P58681 27-1050): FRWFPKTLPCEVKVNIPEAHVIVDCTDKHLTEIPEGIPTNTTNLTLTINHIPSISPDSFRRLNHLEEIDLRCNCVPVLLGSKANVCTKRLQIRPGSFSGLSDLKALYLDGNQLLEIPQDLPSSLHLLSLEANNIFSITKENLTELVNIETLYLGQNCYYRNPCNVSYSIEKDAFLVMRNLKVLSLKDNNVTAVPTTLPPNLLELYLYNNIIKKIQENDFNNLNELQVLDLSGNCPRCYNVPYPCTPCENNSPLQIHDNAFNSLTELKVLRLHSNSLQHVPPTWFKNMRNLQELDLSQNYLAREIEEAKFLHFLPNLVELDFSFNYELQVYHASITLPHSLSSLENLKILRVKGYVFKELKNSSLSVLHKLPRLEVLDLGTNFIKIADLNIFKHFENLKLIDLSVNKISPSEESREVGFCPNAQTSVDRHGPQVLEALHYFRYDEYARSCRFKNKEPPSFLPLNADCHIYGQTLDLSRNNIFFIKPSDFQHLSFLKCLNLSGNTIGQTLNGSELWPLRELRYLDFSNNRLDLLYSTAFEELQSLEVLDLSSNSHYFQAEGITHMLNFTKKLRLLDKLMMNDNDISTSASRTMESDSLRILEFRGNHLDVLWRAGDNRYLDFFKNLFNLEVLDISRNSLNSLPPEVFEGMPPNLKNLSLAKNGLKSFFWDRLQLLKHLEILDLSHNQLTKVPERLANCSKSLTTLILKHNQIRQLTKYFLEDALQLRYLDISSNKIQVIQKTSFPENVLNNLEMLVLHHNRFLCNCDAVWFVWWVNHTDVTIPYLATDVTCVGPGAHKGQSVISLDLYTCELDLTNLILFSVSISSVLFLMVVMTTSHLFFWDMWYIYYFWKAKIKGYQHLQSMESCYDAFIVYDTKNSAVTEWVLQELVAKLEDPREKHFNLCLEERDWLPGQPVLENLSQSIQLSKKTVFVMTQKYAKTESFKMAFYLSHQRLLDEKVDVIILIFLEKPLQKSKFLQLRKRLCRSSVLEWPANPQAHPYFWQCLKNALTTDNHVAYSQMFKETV
Description: (§1) In order to determine the inhibitory activities of the test-ligand, RAW 264.7 cells were pretreated with each candidate compound for 1 hour, then treated with Pam3CSK4 (synthetic triacyl lipopeptide; TLR1/2, Invitrogen), FSL-1 (synthetic diacyl lipoprotein, TLR2/6, 100 ng/ml), lipopolysaccharide (LPS, TLR4, Sigma Aldrich), imiquimod (IMQ, TLR7, Invitrogen), and ODN2395 (type C CpG repeat motif DNA oligo(5′-[…]-3), TLR9, Bioneer) ligand for 4 hours, and treated with poly I:C (I:C repeat motif double-stranded RNA, TLR3, Invitrogen) and TL8-506 (TLR8, Invitrogen) showing delayed reactivity for 24 hours. After activation of TLR, the supernatant was diluted in an appropriate ratio so as to measure within the standard dose range, transferred to a pre-coated 96-well assay plate, and then treated with mouse TNF-alpha secretion level in accordance with the manufacturer's instructions using a mouse-TNF-alpha ELISA-kit (Invitrogen).
(§2) In order to plot the concentration-dependent LC50 curves, treatment with the SK series ligands at different concentrations up to 200 μM (the highest concentration that could be treated within the level of 0.5% DMSO) was performed. Then, cell viability and toxicity response upon treatment with ligands were analyzed by MTT as described in Examples 1-3. Cell viability in each plot was normalized from negative control (100%; no treatment) to positive control (highest concentration of test-ligand), and LC50 was determined by non-linear regression (Graph Pad Prism 7.0). In order to plot the concentration-dependent IC50 curves, pre-treatment with the SK series ligands was performed at different concentrations up to 50 μM (twice the initial concentration). Cell responses mediated by TLR7 and TLR9 (levels of TNF-α secretion) were analyzed by ELISA as described in Examples 1-4. The cytokine level in each plot was normalized from negative control (non-treated) to positive control (treatment with ligand), and IC50 was determined by non-linear regression (Graph Pad Prism 7.0).
(§3) In order to select potential inhibitory molecules against TLR3/TLR7/TLR8/TLR9 activation, first, MTT (3-(4,5-dimethylthiazol-2-yl)-2,5-diphenyltetrazolium bromide) cell viability assay (FIG. 7) was performed upon treatment with a set of ligands from SK21 to SK82 at a concentration of 20 μM and the inhibitory activity thereof was evaluated by an ELISA assay to monitor the level of TNF-α secretion in RAW 264.7 cells. The experimental ligands from SK21 to SK82 were administered at 0.5 μM or 2 μM to the RAW 264.7 cells and stimulated with Imiquimod (TLR7, 1 μg/ml) and OND2395 (TLR9, 0.5 μM).

TLR9 = target: T2, TLR9 (Mus musculus, UniProt Q9EQU3); experiment: TNF-α secretion ELISA after TLR9 agonist ODN2395 in RAW 264.7 cells; assay type: cell-based; settings: SK21 to SK82 at 0.5 μM or 2 μM, ODN2395 0.5 μM
T2 construct: endogenous in cells; host or cells: RAW 264.7
T2 sequence (Q9EQU3 26-1032): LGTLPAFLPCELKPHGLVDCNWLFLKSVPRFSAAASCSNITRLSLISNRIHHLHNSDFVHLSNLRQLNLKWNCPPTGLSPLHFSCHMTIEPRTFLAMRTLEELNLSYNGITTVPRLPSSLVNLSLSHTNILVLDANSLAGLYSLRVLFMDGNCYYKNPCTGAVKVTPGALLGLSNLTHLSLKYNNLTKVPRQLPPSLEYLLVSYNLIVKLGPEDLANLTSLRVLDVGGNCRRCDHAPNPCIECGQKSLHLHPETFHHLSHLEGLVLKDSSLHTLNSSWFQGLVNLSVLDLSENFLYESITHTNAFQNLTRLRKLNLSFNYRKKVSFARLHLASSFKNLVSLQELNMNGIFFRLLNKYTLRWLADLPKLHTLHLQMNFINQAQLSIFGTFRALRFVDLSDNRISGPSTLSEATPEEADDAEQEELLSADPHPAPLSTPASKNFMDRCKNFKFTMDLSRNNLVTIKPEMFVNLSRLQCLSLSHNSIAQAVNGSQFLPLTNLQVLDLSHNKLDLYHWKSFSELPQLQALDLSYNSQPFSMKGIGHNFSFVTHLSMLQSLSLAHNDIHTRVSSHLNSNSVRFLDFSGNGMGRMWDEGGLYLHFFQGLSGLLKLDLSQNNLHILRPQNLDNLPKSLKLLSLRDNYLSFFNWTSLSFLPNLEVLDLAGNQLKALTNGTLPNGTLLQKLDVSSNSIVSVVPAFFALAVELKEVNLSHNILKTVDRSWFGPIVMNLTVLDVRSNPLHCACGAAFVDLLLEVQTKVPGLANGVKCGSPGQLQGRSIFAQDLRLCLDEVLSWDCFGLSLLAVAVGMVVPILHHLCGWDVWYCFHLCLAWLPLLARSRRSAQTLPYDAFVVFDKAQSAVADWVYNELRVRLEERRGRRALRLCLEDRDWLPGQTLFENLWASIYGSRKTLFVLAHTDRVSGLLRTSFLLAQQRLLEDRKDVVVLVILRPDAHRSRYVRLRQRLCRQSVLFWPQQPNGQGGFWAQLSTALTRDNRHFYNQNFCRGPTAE
Description: as §1, §2, §3

inhibitory activity against TLR7 (level of TNF-α secretion) (TLR7; listed as SK 74) | inhibitory activity against TLR9 (level of TNF-α secretion) (TLR9; listed as SK 74) | Structure (SMILES) | inhibitory activity against TLR7 (level of TNF-α secretion) (TLR7) | inhibitory activity against TLR9 (level of TNF-α secretion) (TLR9)
 |  | CN(C)CCCn1c2ccc(C#N)cc2c2c(N)c3c(nc21)CCCC3 [SK62, 11-amino-6-(3-(dimethylamino)propyl)-2,3,4,6-tetrahydro-1H-indolo[2,3-b]quinolin-9-carbonitrile] | significant inhibitory activity; also recorded: significantly reduced | significant inhibitory activity; also recorded: significantly reduced
 |  | CN(C)CCCn1c2ccc(C(F)(F)F)cc2c2c(N)c3c(nc21)CCCC3 [SK63, 6-(3-(dimethylamino)propyl)-9-(trifluoromethyl)-2,3,4,6-tetrahydro-1H-indolo[2,3-b]quinolin-11-amine] | significant inhibitory activity; also recorded: significantly reduced | significant inhibitory activity; also recorded: significantly reduced
 |  | COc1ccc2c3c(N)c4c(nc3n(CCCN(C)C)c2c1)CCCC4 [SK65, 6-(3-(dimethylamino)propyl)-8-methoxy-2,3,4,6-tetrahydro-1H-indolo[2,3-b]quinolin-11-amine] | significant inhibitory activity; also recorded: significantly reduced | significant inhibitory activity; also recorded: significantly reduced
 |  | CN(C)CCCn1c2ccc(OCc3ccccc3)cc2c2c(N)c3c(nc21)CCCC3 [SK69, 9-(benzyloxy)-6-(3-(dimethylamino)propyl)-2,3,4,6-tetrahydro-1H-indolo[2,3-b]quinolin-11-amine] | significant inhibitory activity; also recorded: significantly reduced | significant inhibitory activity; also recorded: significantly reduced
 |  | CC(C)Oc1ccc2c(c1)c1c(N)c3c(nc1n2CCCN(C)C)CCCC3 [SK70, 6-(3-(dimethylamino)propyl)-9-isopropoxy-2,3,4,6-tetrahydro-1H-indolo[2,3-b]quinolin-11-amine] | significant inhibitory activity; also recorded: significantly reduced | significant inhibitory activity; also recorded: significantly reduced
 |  | CN(C)CCCn1c2ccc(O)cc2c2c(N)c3c(nc21)CCCC3 [SK71, 11-amino-6-(3-(dimethylamino)propyl)-2,3,4,6-tetrahydro-1H-indolo[2,3-b]quinolin-9-ol] | significant inhibitory activity; also recorded: significantly reduced | significant inhibitory activity; also recorded: significantly reduced
 |  | CN(C)CCCNc1c2c(nc3c1c1c4ccccc4ccc1n3CCCN(C)C)CCCC2 [SK72, N1-(7-(3-(dimethylamino)propyl)-9,10,11,12-tetrahydro-7H-benzo[4,5]indolo[2,3-b]quinolin-13-yl)-N3,N3-dimethylpropane-1,3-diamine] | significant inhibitory activity; also recorded: significantly reduced | significant inhibitory activity; also recorded: significantly reduced
significant inhibitory activity | significant inhibitory activity | CN(C)CCCn1c2ccc3ccccc3c2c2c(N)c3c(nc21)CCCC3 [SK74, 7-(3-(dimethylamino)propyl)-9,10,11,12-tetrahydro-7H-benzo[4,5]indolo[2,3-b]quinolin-13-amine] | significantly reduced | significantly reduced
 |  | CNCCCn1c(C)c(C)c2c(N)c3c(nc21)CCCCCC3 [SK75, 2,3-dimethyl-1-(3-(methylamino)propyl)-5,6,7,8,9,10-hexahydro-1H-cycloocta[b]pyrrolo[3,2-e]pyridin-4-amine] | significant inhibitory activity; also recorded: significantly reduced | significant inhibitory activity; also recorded: significantly reduced
 |  | Cc1ccc2c3c(N)c4c(nc3n(CCCN(C)C)c2c1)CCCC4 [SK81, 6-(3-(dimethylamino)propyl)-8-methyl-2,3,4,6-tetrahydro-1H-indolo[2,3-b]quinolin-11-amine] | significant inhibitory activity; also recorded: significantly reduced | significant inhibitory activity; also recorded: significantly reduced
 |  | CN(C)CCCn1c2cc(Cl)ccc2c2c(N)c3c(nc21)CCCC3 [SK82, 8-chloro-6-(3-(dimethylamino)propyl)-2,3,4,6-tetrahydro-1H-indolo[2,3-b]quinolin-11-amine] | significant inhibitory activity; also recorded: significantly reduced | significant inhibitory activity; also recorded: significantly reduced
